Results: PMC8624998, “Synthesis and Antiproliferative Evaluation of 3-Chloroazetidin-2-ones with Antimitotic Activity: Heterocyclic Bridged Analogues of Combretastatin A-4” (Pharmaceuticals, 2021)

How the values were obtained:
[1] = system: Mcl-1; experiment: Western blot analysis; type: cell-based, human; settings: MCF-7, 0.05, 0.1 and 0.5 μM, 48 or 72 h
Text: (§1) The apoptosis regulating proteins Bcl-2 and Mcl-1 were next investigated. The anti-apoptotic or pro-survival Bcl-2 protein is also a member of the Bcl-2 family. It prevents the release of a pro-apoptotic AIF (apoptosis inducing factor) and cytochrome c from the mitochondria into the cytoplasm and prevents apoptosis by sequestering caspases (apoptosis promoters). […] (Figure 9). Mcl-1 protein (an induced myeloid leukaemia cell differentiation protein) is another key anti-apoptotic member of the Bcl-2 family and is localised in the mitochondrial outer membrane. It binds and sequesters the pro-apoptotic Bax/Bak proteins and, thus, prevents the release of cytochrome c. Overexpression of the anti-apoptotic factors Mcl-1, Bcl-2 and Bcl-xL in acute myeloid leukaemia and acute lymphocytic leukaemia may be associated dysregulation of apoptosis. […] (Figure 10). Apoptosis can be triggered by a reduction in the expression levels of Mcl-1 and Bcl-2 (e.g., by drug treatment). […]
(§2) MCF-7 cells were seeded at a density of 1 × 10^5 cells/flask in T25 flasks. […] Equal quantities of protein (as determined using a BCA assay) were resolved by SDS-PAGE (12%) followed by transfer to PVDF membranes. […] Proteins were detected using enhanced chemiluminescent Western blot detection (Clarity Western ECL substrate) (Bio Rad) on the ChemiDoc MP System (Bio Rad). […]

[2] = system: Bcl-2; experiment: Western blot analysis; type: cell-based, human; settings: MCF-7, 0.05, 0.1 and 0.5 μM, 48 or 72 h
Text: as §1, §2

[3] = system: K-562; experiment: NCI-60 5 dose screen, leukaemia; type: cell-based; settings: Homo sapiens, K562
[4] = system: CCRF-CEM; experiment: NCI-60 5 dose screen, leukaemia; type: cell-based; settings: Homo sapiens
[5] = system: OVCAR-8; experiment: NCI-60 5 dose screen, Ovarian Cancer; type: cell-based; settings: Homo sapiens

SMILES | level of anti-apoptotic protein Mcl-1 [1] | level of anti-apoptotic protein Bcl-2 [2] | GI50 [3] | GI50 [4] | GI50 [5]
COc1ccc(C2C(Cl)C(=O)N2c2cc(OC)c(OC)c(OC)c2)cc1O (centres unmarked) [Compound 10n, 3-Chloro-4-(3-hydroxy-4-methoxy-phenyl)-1-(3,4,5-trimethoxyphenyl)azetidin-2-one] | downregulated in a dose-dependent manner | downregulated in a dose-dependent manner |  |  | 
CCSc1ccc(C2C(Br)C(=O)N2c2cc(OC)c(OC)c(OC)c2)cc1 (centres unmarked) [Compound 16d, 3-Bromo-4-(4-(ethylthio)phenyl)-1-(3,4,5-trimethoxyphenyl)azetidin-2-one] |  |  | 0.0545 µM | 0.278 µM | 0.403 µM
